Data from patent US10471046B2, “Method for treating, preventing, or reducing the risk of skin infection” (Melinta Subsidiary Corp., priority 2014, dated 2019).
In brackets after ≈: the same amount, converted by molar mass. Where two headings read alike, the source gives them in different places.

System: S. aureus
Assay: Minimum inhibitory concentrations (MICs) for S. aureus of exemplary compounds (Table 2)
Assay type: cell-based
Conditions: Staphylococcus aureus, read-out: MICs
Outline: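 MICs (μg/mL) against S. aureus come from microtiter-tray dilution susceptibility testing per NCCLS M7-A5, comparing growth with and without compound.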

[1] = minimum inhibitory concentrations for S. aureus

SMILES	MIC [1]	MIC
CC(=O)NC[C@H]1CN(c2ccc(-c3ccc(CNCc4ccncc4)c(F)c3)c(F)c2)C(=O)O1 [Compound 4155, N-[3-(2,3′-Difluoro-4′-{[(pyridin-4-ylmethyl)-amino]-methyl}-biphenyl-4-yl)-2-oxo-oxazolidin-5-(S)-ylmethyl]-acetamide]	2 µg/mL (≈ 4.29 µM)	
CC(=O)NC[C@H]1CN(c2ccc(-c3ccc(CNCc4cnoc4)cc3)c(F)c2)C(=O)O1 [Compound 4038, N-[3-(2-Fluoro-4′-{[(isoxazol-4-ylmethyl)-amino]-methyl}-biphenyl-4-yl)-2-oxo-oxazolidin-5-(S)-ylmethyl]-acetamide]	0.25 µg/mL (≈ 0.57 µM)	
CC(=O)NC[C@H]1CN(c2ccc(-c3ccc(CNCc4cnnn4C)cc3)c(F)c2)C(=O)O1 [Compound 4272, N-[3-(2-Fluoro-4′-{[(3-methyl-3H-[1,2,3]triazol-4-ylmethyl)-amino]-methyl}-biphenyl-4-yl)-2-oxo-oxazolidin-5-(S)-ylmethyl]-acetamide]	0.25 µg/mL (≈ 0.552 µM)	
O=C1O[C@@H](Cn2cncn2)CN1c1ccc(-c2ccc(CNCc3ccncc3)cc2)c(F)c1 [Compound 4230, 3-(2-Fluoro-4′-{[(pyridin-4-ylmethyl)-amino]-methyl}-biphenyl-4-yl)-5-(R)-[1,2,4]triazol-1-ylmethyl-oxazolidin-2-one]	32 µg/mL (≈ 69.8 µM)	
CC(=O)NC[C@H]1CN(c2ccc(-c3ccc(CNCc4cnn[nH]4)cc3)c(F)c2)C(=O)O1 [Compound 4267, N-[3-(2-Fluoro-4′-{[(3H-[1,2,3]triazol-4-ylmethyl)-amino]-methyl}-biphenyl-4-yl)-2-oxo-oxazolidin-5-(S)-ylmethyl]-acetamide]	0.25 µg/mL (≈ 0.57 µM)	
CC(=O)NC[C@H]1CN(c2ccc(-c3ccc(CNS(=O)(=O)c4ccc(N5CCOCC5)nc4)cc3)c(F)c2)C(=O)O1 [Compound 2044, N-(3-{2-Fluoro-4′-[(6-morpholin-4-yl-pyridine-3-sulfonylamino)-methyl]-biphenyl-4-yl}-2-oxo-oxazolidin-5-(S)-ylmethyl)-acetamide]	128 µg/mL (≈ 219 µM)	
CC(=O)NC[C@H]1CN(c2ccc(-c3ccc(CNCc4ccncc4)c(F)c3F)c(F)c2)C(=O)O1 [Compound 4089, N-[2-Oxo-3-(2,2′,3′-trifluoro-4′-{[(pyridin-4-ylmethyl)-amino]-methyl}-biphenyl-4-yl)-oxazolidin-5-(S)-ylmethyl]-acetamide]	2 µg/mL (≈ 4.13 µM)	
CC(=O)NC[C@H]1CN(c2ccc(-c3ccc(C[S+]([O-])c4nncs4)cc3)c(F)c2)C(=O)O1 (stereo partly drawn) [Compound 2035, N-{3-[2-Fluoro-4′-([1,3,4]thiadiazole-2-sulfinylmethyl)-biphenyl-4-yl]-2-oxo-oxazolidin-5-(S)-ylmethyl}-acetamide]	1 µg/mL (≈ 2.11 µM)	
CC(=O)NC[C@H]1CN(c2ccc(-c3ccc(CN(Cc4csnn4)C(N)=O)cc3)c(F)c2)C(=O)O1 [Compound 4299, N-{3-[2-Fluoro-4′-(1-[1,2,3]thiadiazol-4-ylmethyl-ureidomethyl)-biphenyl-4-yl]-2-oxo-oxazolidin-5-(S)-ylmethyl}-acetamide]	2 µg/mL (≈ 4.01 µM)	
CC(=O)NC[C@H]1CN(c2ccc(-c3ccc(CNCCSc4nnc[nH]4)cc3)c(F)c2)C(=O)O1 [Compound 5005, N-[3-(2-Fluoro-4′-{[2-(4H-[1,2,4]triazol-3-ylsulfanyl)-ethylamino]-methyl}-biphenyl-4-yl)-2-oxo-oxazolidin-5-(S)-ylmethyl]-acetamide]	0.5 µg/mL (≈ 1.03 µM)	
CC(=O)NC[C@H]1CN(c2ccc(-c3ccc(CN4CCC4)cc3)c(F)c2)C(=O)O1 [Compound 1090, N-[3-(4′-Azetidin-1-ylmethyl-2-fluoro-biphenyl-4-yl)-2-oxo-oxazolidin-5-(S)-ylmethyl]-acetamide]	2 µg/mL (≈ 5.03 µM)	
CC(=O)NC[C@H]1CN(c2ccc(-c3ccc(C(=N)NCc4ccncc4)cc3)c(F)c2)C(=O)O1 [Compound 4080, N-{3-[2-Fluoro-4′-(N-pyridin-4-ylmethyl-carbamimidoyl)-biphenyl-4-yl]-2-oxo-oxamlidin-5-(S)-ylmethyl}-acetamide]	128 µg/mL (≈ 277 µM)	
CC(=O)NC[C@H]1CN(c2ccc(-c3ccc(CNC(=O)C4CCC(=O)N4)cc3)c(F)c2)C(=O)O1 (stereo partly drawn) [Compound 4289, 5-Oxo-pyrrolidine-2-carboxylic acid {4′-[5-(S)-(acetylamino-methyl)-2-oxo-oxazolidin-3-yl]-2′-fluoro-biphenyl-4-ylmethyl}-amide]	8 µg/mL (≈ 17.1 µM)	
CC(=O)NC[C@H]1CN(c2cc(F)c(-c3ccc(Cn4cc(CO)nn4)cc3)c(F)c2)C(=O)O1 [Compound 1018, N-{3-[2,6-Difluoro-4′-(4-hydroxymethyl-[1,2,3]triazol-1-ylmethyl)-biphenyl-4-yl]-2-oxo-oxazolidin-5-(S)-ylmethyl}-acetamide]		1 µg/mL (≈ 2.19 µM)
CC(=O)NC[C@H]1CN(c2ccc(-c3ccc(C[S+]([O-])c4ccncc4)cc3)c(F)c2)C(=O)O1 (stereo partly drawn) [Compound 2022, N-{3-[2-Fluoro-4′-(pyridine-4-sulfinylmethyl)-biphenyl-4-yl]-2-oxo-oxazolidin-5-(S)-ylmethyl}-acetamide]	2 µg/mL (≈ 4.28 µM)	
CC(=O)NC[C@H]1CN(c2ccc(-c3ccc(CS(=O)(=O)NCc4ccccc4)cc3)c(F)c2)C(=O)O1 [Compound 4170, N-{3-[4′-(Benzylsulfamoyl-methyl)-2-fluoro-biphenyl-4-yl]-2-oxo-oxazolidin-5-(S)-ylmethyl}-acetamide]	128 µg/mL (≈ 250 µM)	
CC(=O)NC[C@H]1CN(c2ccc(-c3ccc(C(=N)NCc4ccccn4)cc3)c(F)c2)C(=O)O1 [Compound 4097, N-{3-[2-Fluoro-4′-(N-pyridin-2-ylmethyl-carbamimidoyl)-biphenyl-4-yl]-2-oxo-oxazolidin-5-(S)-ylmethyl}-acetamide]	16 µg/mL (≈ 34.7 µM)	
CC(=O)NC[C@H]1CN(c2ccc(-c3ccc(CN(C)Cc4cnn[nH]4)cc3)c(F)c2)C(=O)O1 [Compound 4276, N-[3-(2-Fluoro-4′-{[methyl-(3H-[1,2,3]triazol-4-ylmethyl)-amino]-methyl}-biphenyl-4-yl)-2-oxo-oxazolidin-5-(S)-ylmethyl]-acetamide]	0.25 µg/mL (≈ 0.552 µM)	
CC(=O)NC[C@H]1CN(c2ccc(-c3ccc(CNCc4cc(C)c(C)o4)cc3)c(F)c2)C(=O)O1 [Compound 4085, N-[3-(4′-{[(4,5-Dimethyl-furan-2-ylmethyl)-amino]-methyl}-2-fluoro-biphenyl-4-yl)-2-oxo-oxazolidin-5-(S)-ylmethyl]-acetamide]	4 µg/mL (≈ 8.59 µM)	
CSC1=NCCN1Cc1ccc(-c2ccc(N3C[C@H](CNC(C)=O)OC3=O)cc2F)cc1 [Compound 1078, N-{3-[2-Fluoro-4′-(2-methylsulfanyl-4,5-dihydro-imidazol-1-ylmethyl)-biphenyl-4-yl]-2-oxo-oxazolidin-5-(S)-ylmethyl}-acetamide]	2 µg/mL (≈ 4.38 µM)	
CC(=O)NC[C@H]1CN(c2ccc(-c3ccc(CNCc4[nH]nnc4C)cc3)c(F)c2)C(=O)O1 [Compound 4269, N-[3-(2-Fluoro-4′-{[(5-methyl-3H-[1,2,3]triazol-4-ylmethyl)-amino]-methyl}-biphenyl-4-yl)-2-oxo-oxazolidin-5-(S)-ylmethyl]-acetamide]	2 µg/mL (≈ 4.42 µM)	
CC(=O)NC[C@H]1CN(c2ccc(-c3ccc(CNC(=O)/C=C/c4cncn(C)c4=O)cc3)c(F)c2)C(=O)O1 [Compound 4007, N-{4′-[5-(S)-(Acetylamino-methyl)-2-oxo-oxazolidin-3-yl]-2′-fluoro-biphenyl-4-ylmethyl}-3-(1-methyl-6-oxo-1,6-dihydro-pyrimidin-5-yl)-acrylamide]	1 µg/mL (≈ 1.92 µM)	
